27 compounds from ChEMBL document CHEMBL5331114, “Discovery of Pyxinol Amide Derivatives Bearing Amino Acid Residues as Nonsubstrate Allosteric Inhibitors of P-Glycoprotein-Mediated Multidrug Resistance” (J Med Chem, 2023) can be followed below.

Common to all, as to format: functional
Assay [1] is described as follows: Cytotoxicity against human KBV Cells assessed as cell survival rate at 10 uM incubated for 72 hrs by MTT assay. The settings on record: read-out: Survival.
Assay [2] is described as follows: Reversal of multidrug resistance in human KBV Cells assessed as increase in PTX-induced cytotoxicity by measuring cell survival rate at 10 uM incubated for 72 hrs in presence of paclitaxel by MTT assay relative to control. Particulars: read-out: Survival.
A short description of assay [3]: Reversal of multidrug resistance in human KBV Cells assessed as increase in PTX-induced cytotoxicity by measuring cell survival rate at 5 uM incubated for 72 hrs in presence of paclitaxel by MTT assay relative to control. Particulars: read-out: Survival.
Assay [4] in a line: Reversal of multidrug resistance in human KBV Cells assessed as reversal fold of paclitaxel IC50 at 5 uM incubated for 72 hrs in presence of paclitaxel by MTT assay.
A short description of assay [5]: Reversal of multidrug resistance in human KBV Cells assessed as reversal fold of paclitaxel IC50 at 10 uM incubated for 72 hrs in presence of paclitaxel by MTT assay.

In the case of `CC(C)[C@H](N)C(=O)N[C@H]1CC[C@]2(C)[C@H]3C[C@@H](O)[C@@H]4[C@@H]([C@]5(C)CC[C@H](C(C)(C)O)O5)CC[C@@]4(C)[C@]3(C)CC[C@H]2C1(C)C`, the viability at 10 µM stood at 74% in assay [1] and 32% in assay [2]. In addition, the viability at 5 µM in assay [3] is 34%. Besides, the results for the “fold change (FC)” value in assay [4] and in assay [5] were 36 and 46, respectively.
With `CC(C)(O)[C@@H]1CC[C@@](C)([C@H]2CC[C@]3(C)[C@@H]2[C@H](O)C[C@@H]2[C@@]4(C)CC[C@H](OC(=O)[C@@H]5CCCN5)C(C)(C)[C@@H]4CC[C@]23C)O1`, the viability at 10 µM in assay [1] amounted to 113%; in assay [2], 116%. Moreover, the viability at 5 µM in assay [3] worked out at 113%.
Consider `CC(C)(O)[C@H]1CC[C@@](C)([C@H]2CC[C@]3(C)[C@@H]2[C@H](O)C[C@@H]2[C@@]4(C)CC[C@H](NC(=O)[C@@H](N)Cc5ccc(O)cc5)C(C)(C)[C@@H]4CC[C@]23C)O1`, for which the viability at 10 µM in assay [1] was determined as 93%; in assay [2], 35%. Further, in assay [3], the viability at 5 µM stood at 59%.
The like results for `CC(C)[C@H](N)C(=O)N[C@H]1CC[C@]2(C)[C@H]3C[C@@H](O)[C@@H]4[C@@H]([C@]5(C)CC[C@@H](C(C)(C)O)O5)CC[C@@]4(C)[C@]3(C)CC[C@H]2C1(C)C` were, in that order, 79%, 52% and 81%.
For `CC(C)(C)OC(=O)N[C@@H](Cc1ccc(OC(C)(C)C)cc1)C(=O)N[C@H]1CC[C@]2(C)[C@H]3C[C@@H](O)[C@@H]4[C@@H]([C@]5(C)CC[C@H](C(C)(C)O)O5)CC[C@@]4(C)[C@]3(C)CC[C@H]2C1(C)C` the same measures were 125%, 38% and 42%.
In the case of `CC(C)(C)OC(=O)N[C@@H](Cc1ccccc1)C(=O)N[C@H]1CC[C@]2(C)[C@H]3C[C@@H](O)[C@@H]4[C@@H]([C@]5(C)CC[C@H](C(C)(C)O)O5)CC[C@@]4(C)[C@]3(C)CC[C@H]2C1(C)C`, the viability at 10 µM in assay [1] stood at 104%; in assay [2] it was 24%. In assay [3], the viability at 5 µM is 30%. Also, the results for the “fold change (FC)” value in assay [4] and in assay [5] were 22 and 82, respectively.
Turning to `CC(C)(O)[C@H]1CC[C@@](C)([C@H]2CC[C@]3(C)[C@@H]2[C@H](O)C[C@@H]2[C@@]4(C)CC[C@H](NC(=O)[C@@H](N)CCCCN)C(C)(C)[C@@H]4CC[C@]23C)O1`, the viability at 10 µM worked out at 116% in assay [1] and 112% in assay [2]. In addition, the viability at 5 µM in assay [3] was 110%.
The like results for `CC(C)[C@H](NC(=O)OC(C)(C)C)C(=O)N[C@H]1CC[C@]2(C)[C@H]3C[C@@H](O)[C@@H]4[C@@H]([C@]5(C)CC[C@H](C(C)(C)O)O5)CC[C@@]4(C)[C@]3(C)CC[C@H]2C1(C)C` were, in that order, 114%, 21% and 36%.
For `CC(C)(O)[C@@H]1CC[C@@](C)([C@H]2CC[C@]3(C)[C@@H]2[C@H](O)C[C@@H]2[C@@]4(C)CC[C@H](NC(=O)[C@@H](N)Cc5ccc(O)cc5)C(C)(C)[C@@H]4CC[C@]23C)O1` the same measures were 91%, 71% and 88%.
The like results for `CC(C)(O)[C@@H]1CC[C@@](C)([C@H]2CC[C@]3(C)[C@@H]2[C@H](O)C[C@@H]2[C@@]4(C)CC[C@H](NC(=O)[C@@H](N)CC(=O)O)C(C)(C)[C@@H]4CC[C@]23C)O1` were, in that order, 90%, 88% and 84%.
Consider `CC(C)(C)OC(=O)NCCCC[C@H](NC(=O)OC(C)(C)C)C(=O)N[C@H]1CC[C@]2(C)[C@H]3C[C@@H](O)[C@@H]4[C@@H]([C@]5(C)CC[C@H](C(C)(C)O)O5)CC[C@@]4(C)[C@]3(C)CC[C@H]2C1(C)C`, for which the viability at 10 µM in assay [1] came out at 119%; in assay [2], 33%. Moreover, the viability at 5 µM in assay [3] was found to be 47%.
For `CC(C)(O)[C@@H]1CC[C@@](C)([C@H]2CC[C@]3(C)[C@@H]2[C@H](O)C[C@@H]2[C@@]4(C)CC[C@H](N)C(C)(C)[C@@H]4CC[C@]23C)O1` the same measures were 98%, 55% and 94%.
Regarding `CC(C)(C)OC(=O)C[C@H](NC(=O)OC(C)(C)C)C(=O)N[C@H]1CC[C@]2(C)[C@H]3C[C@@H](O)[C@@H]4[C@@H]([C@]5(C)CC[C@H](C(C)(C)O)O5)CC[C@@]4(C)[C@]3(C)CC[C@H]2C1(C)C`, the viability at 10 µM in assay [1] worked out at 152%; in assay [2] it was 28%. In assay [3], the viability at 5 µM was 41%.
The like results for `CC(C)(C)OC(=O)NCCCC[C@H](NC(=O)OC(C)(C)C)C(=O)N[C@H]1CC[C@]2(C)[C@H]3C[C@@H](O)[C@@H]4[C@@H]([C@]5(C)CC[C@@H](C(C)(C)O)O5)CC[C@@]4(C)[C@]3(C)CC[C@H]2C1(C)C` were, in that order, 99%, 29% and 36%.
For `CC(C)(O)[C@H]1CC[C@@](C)([C@H]2CC[C@]3(C)[C@@H]2[C@H](O)C[C@@H]2[C@@]4(C)CC[C@H](N)C(C)(C)[C@@H]4CC[C@]23C)O1` the same measures were 98%, 40% and 44%.
On to `COc1cc2c(cc1OC)CN(CCc1ccc(NC(=O)c3cc(OC)c(OC)cc3NC(=O)c3cnc4ccccc4c3)cc1)CC2`, for which the “fold change (FC)” value in assay [4] was found to be 113; in assay [5], 150.
With `CC(C)(C)OC(=O)N1CCC[C@H]1C(=O)O[C@H]1CC[C@]2(C)[C@H]3C[C@@H](O)[C@@H]4[C@@H]([C@]5(C)CC[C@@H](C(C)(C)O)O5)CC[C@@]4(C)[C@]3(C)CC[C@H]2C1(C)C`, the results for the viability at 10 µM in assay [1] and in assay [2] were 103% and 35%, respectively. Besides, the viability at 5 µM in assay [3] came to 66%.
On to `CC(C)(O)[C@H]1CC[C@@](C)(C2CC[C@]3(C)[C@@H]2[C@H](O)C[C@@H]2[C@@]4(C)CC[C@H](O)C(C)(C)[C@@H]4CC[C@]23C)O1` (stereo partly drawn), for which the viability at 10 µM in assay [1] came out at 94%; in assay [2] it was 64%.
For `CC(C)(O)[C@@H]1CC[C@@](C)([C@H]2CC[C@]3(C)[C@@H]2[C@H](O)C[C@@H]2[C@@]4(C)CC[C@H](NC(=O)[C@@H]5CCCN5)C(C)(C)[C@@H]4CC[C@]23C)O1`, the values for the viability at 10 µM in assay [1] and in assay [2] were 78% and 58%, respectively. Further, the viability at 5 µM in assay [3] is 83%.
In the case of `CC(C)(O)[C@@H]1CC[C@@](C)([C@H]2CC[C@]3(C)[C@@H]2[C@H](O)C[C@@H]2[C@@]4(C)CC[C@H](NC(=O)[C@@H](N)Cc5ccccc5)C(C)(C)[C@@H]4CC[C@]23C)O1`, the viability at 10 µM in assay [1] turned out to be 89%; in assay [2], 36%. Moreover, the viability at 5 µM in assay [3] was found to be 67%.
As for `CC(C)(O)[C@H]1CC[C@@](C)([C@H]2CC[C@]3(C)[C@@H]2[C@H](O)C[C@@H]2[C@@]4(C)CC[C@H](OC(=O)[C@@H]5CCCN5)C(C)(C)[C@@H]4CC[C@]23C)O1`, the viability at 10 µM in assay [1] came to 108%; in assay [2], 61%. In addition, in assay [3], the viability at 5 µM amounted to 76%.
As to `CC(C)(O)[C@H]1CC[C@@](C)([C@H]2CC[C@]3(C)[C@@H]2[C@H](O)C[C@@H]2[C@@]4(C)CC[C@H](NC(=O)[C@@H](N)CC(=O)O)C(C)(C)[C@@H]4CC[C@]23C)O1`, the viability at 10 µM was 95% in assay [1] and 100% in assay [2]. In addition, the viability at 5 µM in assay [3] amounted to 96%.
The like results for `CC(C)(C)OC(=O)N1CCC[C@H]1C(=O)N[C@H]1CC[C@]2(C)[C@H]3C[C@@H](O)[C@@H]4[C@@H]([C@]5(C)CC[C@H](C(C)(C)O)O5)CC[C@@]4(C)[C@]3(C)CC[C@H]2C1(C)C` were, in that order, 155%, 32% and 41%.
With `CC(C)[C@H](NC(=O)OC(C)(C)C)C(=O)N[C@H]1CC[C@]2(C)[C@H]3C[C@@H](O)[C@@H]4[C@@H]([C@]5(C)CC[C@@H](C(C)(C)O)O5)CC[C@@]4(C)[C@]3(C)CC[C@H]2C1(C)C`, the figures for the viability at 10 µM in assay [1] and in assay [2] were 89% and 31%, respectively. Further, in assay [3], the viability at 5 µM came to 48%.
With `CC(C)(C)OC(=O)N1CCC[C@H]1C(=O)N[C@H]1CC[C@]2(C)[C@H]3C[C@@H](O)[C@@H]4[C@@H]([C@]5(C)CC[C@@H](C(C)(C)O)O5)CC[C@@]4(C)[C@]3(C)CC[C@H]2C1(C)C`, the viability at 10 µM was 111% in assay [1] and 30% in assay [2]. The viability at 5 µM in assay [3] is 44%.
The like results for `CC(C)(C)OC(=O)N1CCC[C@H]1C(=O)O[C@H]1CC[C@]2(C)[C@H]3C[C@@H](O)[C@@H]4[C@@H]([C@]5(C)CC[C@H](C(C)(C)O)O5)CC[C@@]4(C)[C@]3(C)CC[C@H]2C1(C)C` were, in that order, 102%, 70% and 111%.
The like results for `CC(C)(O)[C@@H]1CC[C@@](C)([C@H]2CC[C@]3(C)[C@@H]2[C@H](O)C[C@@H]2[C@@]4(C)CC[C@H](NC(=O)[C@@H](N)CCCCN)C(C)(C)[C@@H]4CC[C@]23C)O1` were, in that order, 87%, 88% and 90%.
